In PubChem BioAssay (NCI):
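Cultured in 96-well plates, cells were exposed to test compound for 48 hours across five concentrations. GI50 marks 50% less growth. TGI denotes the concentration required for complete inhibition of growth.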

Tests used:
Experiment in all cases: growth of human tumour cells (NCI), 48 h
[1] = test system: OVCAR-3 ovarian
[2] = test system: SR leukemia
[3] = test system: SNB-19 CNS
[4] = test system: SF-295 CNS
[5] = test system: SF-539 CNS
[6] = test system: OVCAR-5 ovarian
[7] = test system: MDA-MB-435
[8] = test system: NCI-H522 lung
[9] = test system: T-47D breast
[10] = test system: IGROV1 ovarian

| SMILES | GI50 [1] | TGI [1] | GI50 [2] | TGI [2] | GI50 [3] | TGI [3] | GI50 [4] | TGI [4] | GI50 [5] | TGI [5] | GI50 [6] | TGI [6] | GI50 [7] | TGI [7] | GI50 [8] | TGI [8] | GI50 [9] | TGI [9] | GI50 [10] | TGI [10] |
| --- | --- | --- | --- | --- | --- | --- | --- | --- | --- | --- | --- | --- | --- | --- | --- | --- | --- | --- | --- | --- |
| Cn1c(-c2c(N)n(Cc3ccc(Cl)cc3)c3nc(C#N)c(C#N)nc23)nc2ccccc21 | 1.37 µM | 6.2 µM | 8.26 µM | > 50 µM | 12.3 µM | 46.5 µM | 6.28 µM | 40.5 µM | 6.64 µM | 14.5 µM | 6.74 µM | 16 µM | 7.63 µM | > 50 µM | 2.83 µM | 15.6 µM | 1.83 µM | 14.5 µM | 1.54 µM | 7.71 µM |
| O=C(O)C1(C(=O)O)CCN(S(=O)(=O)c2ccccc2)CC1 |  | > 100 µM |  | > 100 µM |  | > 100 µM |  | > 100 µM |  | > 100 µM |  | > 100 µM |  | > 100 µM |  | > 100 µM |  | > 100 µM |  | > 100 µM |
| CN(C)c1ccc2c(SCC(=O)OCC(=O)[C@@]3(O)CC[C@H]4[C@@H]5CCC6=CC(=O)C=C[C@]6(C)[C@H]5C(=O)C[C@@]43C)c3ccc(N(C)C)cc3nc2c1 |  | > 100 µM |  | 4 µM |  | > 94.5 µM |  | > 100 µM |  | > 56.3 µM |  | > 100 µM |  | > 72.1 µM |  | > 100 µM |  | > 100 µM |  | > 100 µM |
| CN1CCN(c2ccc(NC3=C(Cl)C(=O)c4ncccc4C3=O)cc2C(F)(F)F)CC1 | 0.297 µM | 1.11 µM | 0.355 µM | 3.66 µM | 13.6 µM | 26.8 µM | 16.6 µM | 30.4 µM | 1.74 µM | 3.53 µM | 2.2 µM | 5.14 µM | 1.79 µM | 3.3 µM | 1.63 µM | 3.39 µM | 1.33 µM | 5.31 µM | 1.56 µM | 3.18 µM |
| COc1ccc(-n2nc(C)c3c(Nc4ccc(NC(=O)Nc5cc(C(F)(F)F)ccc5F)cc4)ncnc32)cc1 | 2.4 µM | 6.84 µM | 2.87 µM | > 100 µM | 3.66 µM | > 100 µM | 2.06 µM | 4.43 µM | 1.94 µM | 4.87 µM | 2.87 µM | 10.6 µM | 2.44 µM | 6.51 µM | 1.94 µM | 4.95 µM | 2.57 µM | 8.72 µM | 2.98 µM | 11.1 µM |
| CC(C)(C)OC(=O)N(CCCn1c2c(c3ccccc3c1=O)C(=O)c1ccccc1-2)CCN(CCCn1c2c(c3ccccc3c1=O)C(=O)c1ccccc1-2)C(=O)OC(C)(C)C | 13.2 µM | > 50 µM | 2.26 µM | 13.7 µM | 37.8 µM | > 50 µM | 14 µM | > 50 µM | > 50 µM | > 50 µM | > 50 µM | > 50 µM | > 50 µM | > 50 µM | 21.3 µM | > 50 µM | > 50 µM | > 50 µM | 21.8 µM | > 50 µM |
| CC(C)(C)c1ccc(NC(=O)c2cc(=O)c3ccccc3[nH]2)c(C(C)(C)C)c1O | 4.84 µM | 15.9 µM | 2.13 µM | 4.69 µM | 13.7 µM | 30 µM | 6.25 µM | 20.2 µM | 13 µM | 26.3 µM | 6.26 µM | 18.7 µM | 4.92 µM | 17.7 µM | 8.04 µM | 20.8 µM | 7.49 µM | 21.9 µM | 10.4 µM | 22.7 µM |
| O=c1c2ccccc2c(C=NCCNCCO)c2oc3ccccc3n12 | 11.7 µM | 24 µM | 2.48 µM | 6.62 µM | 6.33 µM | 19.6 µM | 3.72 µM | 13.6 µM | 3.51 µM | 12.2 µM | 15.7 µM | 29.1 µM | 12.3 µM | 24.7 µM | 16.7 µM | 37.7 µM | 4.12 µM | 17.9 µM | 7.64 µM | 24 µM |
| C=C(C)[C@@H]1CC[C@]2(c3ncc(C)o3)CC[C@]3(C)[C@H](CC[C@@H]4[C@@](C)(CCC#N)[C@H](C(=C)C)CC[C@]43C)[C@@H]12 | 4.16 µM | 15.5 µM | 2.75 µM | > 100 µM | 3.66 µM | 14.5 µM | 7.22 µM | 21.2 µM | 9.05 µM | 21.7 µM | 8.73 µM | 21.1 µM | 4.87 µM | 18 µM | 1.9 µM | 4.16 µM | 3.19 µM | 15 µM | 5.07 µM | 19.1 µM |
